Key:
Assay in all cases: relative viability (nuclei count vs DMSO), 5 days (fraction); higher = more cells survive
BI-2536 + Linsitinib = compound: CC[C@@H]1C(=O)N(C)c2cnc(Nc3ccc(C(=O)NC4CCN(C)CC4)cc3OC)nc2N1C1CCCC1 [BI-2536] + C[C@]1(O)C[C@@H](c2nc(-c3ccc4ccc(-c5ccccc5)nc4c3)c3c(N)nccn32)C1 [Linsitinib] (partner 1 µM)
In short: (§1)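 Relative viability is defined as nuclei in treated wells over nuclei in vehicle wells. Duplicate plates were run and medians reported. Lung cancer cell lines in 1536-well plates were dosed by pin tool one day after seeding, with one drug or with a fixed anchor-drug dose plus five library-drug doses (not always all listed) in √10 steps, and nuclei were counted after 5 days.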

BI-2536 + OSI-027 = compound: CC[C@@H]1C(=O)N(C)c2cnc(Nc3ccc(C(=O)NC4CCN(C)CC4)cc3OC)nc2N1C1CCCC1 [BI-2536] + COc1cccc2cc(-c3nc([C@H]4CC[C@H](C(=O)O)CC4)n4ncnc(N)c34)[nH]c12 [OSI-027] (partner 0.5 µM)
In short: as §1

BI-2536 + Alpelisib = compound: CC[C@@H]1C(=O)N(C)c2cnc(Nc3ccc(C(=O)NC4CCN(C)CC4)cc3OC)nc2N1C1CCCC1 [BI-2536] + Cc1nc(NC(=O)N2CCC[C@H]2C(N)=O)sc1-c1ccnc(C(C)(C)C(F)(F)F)c1 [Alpelisib] (partner 2 µM)
In short: as §1

BI-2536 + Vorinostat = compound: CC[C@@H]1C(=O)N(C)c2cnc(Nc3ccc(C(=O)NC4CCN(C)CC4)cc3OC)nc2N1C1CCCC1 [BI-2536] + O=C(CCCCCCC(=O)Nc1ccccc1)NO [Vorinostat] (partner 1 µM)
In short: as §1

Row | Cell Line | relative viability (BI-2536 + Linsitinib; first compound 0.01 µM) | relative viability (BI-2536 + Linsitinib; first compound 0.03162 µM) | relative viability (BI-2536 + Linsitinib; first compound 0.1 µM) | relative viability (BI-2536 + Linsitinib; first compound 0.3162 µM) | relative viability (BI-2536 + Linsitinib; first compound 1 µM) | relative viability (BI-2536 + OSI-027; first compound 0.01 µM) | relative viability (BI-2536 + OSI-027; first compound 0.03162 µM) | relative viability (BI-2536 + OSI-027; first compound 0.1 µM) | relative viability (BI-2536 + OSI-027; first compound 0.3162 µM) | relative viability (BI-2536 + OSI-027; first compound 1 µM) | relative viability (BI-2536 + Alpelisib; first compound 0.01 µM) | relative viability (BI-2536 + Alpelisib; first compound 0.03162 µM) | relative viability (BI-2536 + Alpelisib; first compound 0.1 µM) | relative viability (BI-2536 + Alpelisib; first compound 0.3162 µM) | relative viability (BI-2536 + Alpelisib; first compound 1 µM) | relative viability (BI-2536 + Vorinostat; first compound 0.01 µM) | relative viability (BI-2536 + Vorinostat; first compound 0.03162 µM) | relative viability (BI-2536 + Vorinostat; first compound 0.1 µM) | relative viability (BI-2536 + Vorinostat; first compound 0.3162 µM) | relative viability (BI-2536 + Vorinostat; first compound 1 µM)
1 | HARA | 0.984 | 1.2 | 0.969 | 0.0681 | 0.0677 | 0.512 | 0.738 | 0.152 | 0.0483 | 0.0491 | 1.03 | 0.927 | 0.843 | 0.062 | 0.0695 | 0.626 | 0.511 | 0.422 | 0.0897 | 0.108
2 | NCI-H2087 | 0.83 | 1.06 | 0.927 | 0.197 | 0.163 | 0.564 | 0.541 | 0.186 | 0.101 | 0.0808 | 1.11 | 1.18 | 1.03 | 0.15 | 0.132 | 0.731 | 0.773 | 0.229 | 0.0706 | 0.124
3 | NCI-H1437 | 1.03 | 0.901 | 0.941 | 0.123 | 0.0942 | 0.857 | 0.925 | 0.398 | 0.172 | 0.149 | 0.981 | 0.742 | 0.422 | 0.113 | 0.0916 | 0.809 | 0.751 | 0.394 | 0.301 | 0.312
4 | NCI-H650 | 0.964 | 0.881 | 0.534 | 0.165 | 0.17 | 0.551 | 0.471 | 0.351 | 0.19 | 0.144 | 1.02 | 0.778 | 0.437 | 0.218 | 0.127 | 0.418 | 0.479 | 0.145 | 0.154 | 0.128
5 | COR-L23 | 0.961 | 1.06 | 0.605 | 0.104 | 0.0946 | 0.864 | 0.484 | 0.216 | 0.107 | 0.139 | 0.853 | 0.675 | 0.18 | 0.0928 | 0.0868 | 0.438 | 0.281 | 0.135 | 0.0945 | 0.0882
6 | COR-L 105 | 0.829 | 0.915 | 0.946 | 0.277 | 0.312 | 0.69 | 0.596 | 0.35 | 0.254 | 0.214 | 0.744 | 1.07 | 0.817 | 0.252 | 0.26 | 0.959 | 0.79 | 0.52 | 0.349 | 0.334
7 | LK-2 | 0.528 | 0.504 | 0.506 | 0.12 | 0.144 | 0.202 | 0.183 | 0.169 | 0.158 | 0.151 | 1.14 | 0.318 | 0.374 | 0.222 | 0.282 | 0.181 | 0.242 | 0.15 | 0.104 | 0.155
8 | 201T | 1.07 | 0.866 | 1.07 | 1 | 0.345 | 0.331 | 0.715 | 0.728 | 0.0923 | 0.16 | 0.997 | 1.03 | 0.973 | 0.441 | 0.285 | 0.967 | 0.98 | 0.841 | 0.254 | 0.31
9 | HCC-44 | 0.672 | 0.72 | 0.602 | 0.12 | 0.0939 | 0.483 | 0.527 | 0.13 | 0.135 | 0.12 | 0.775 | 0.705 | 0.423 | 0.0667 | 0.0737 | 1.19 | 1.01 | 0.847 | 0.346 | 0.278
10 | NCI-H596 | 1.09 | 1.1 | 1.11 | 0.363 | 0.39 | 0.688 | 0.825 | 0.51 | 0.191 | 0.304 | 0.409 | 0.46 | 0.535 | 0.305 | 0.304 | 0.644 | 0.664 | 0.551 | 0.228 | 0.206
11 | H3255 | 0.906 | 1.03 | 0.903 | 0.227 | 0.226 | 0.51 | 0.586 | 0.188 | 0.259 | 0.323 | 0.691 | 0.492 | 0.37 | 0.252 | 0.241 | 0.736 | 0.786 | 0.447 | 0.519 | 0.306
12 | NCI-H647 | 1.15 | 1.15 | 1.11 | 0.108 | 0.0822 | 0.814 | 0.807 | 0.529 | 0.0918 | 0.0985 | 1.19 | 0.57 | 0.571 | 0.0897 | 0.091 | 0.526 | 0.372 | 0.236 | 0.086 | 0.0837
13 | NCI-H2023 | 0.67 | 0.667 | 0.606 | 0.0984 | 0.109 | 0.398 | 0.406 | 0.189 | 0.0915 | 0.0907 | 0.57 | 0.577 | 0.309 | 0.0843 | 0.0719 | 0.684 | 0.549 | 0.154 | 0.0827 | 0.0741
14 | NCI-H23 | 0.536 | 0.542 | 0.644 | 0.191 | 0.138 | 0.551 | 0.508 | 0.16 | 0.107 | 0.107 | 0.734 | 0.737 | 0.369 | 0.139 | 0.135 | 0.527 | 0.555 | 0.133 | 0.133 | 0.157
15 | NCI-H1944 | 1.35 | 1.27 | 1.17 | 1.02 | 0.283 | 0.418 | 0.443 | 0.291 | 0.134 | 0.148 | 0.895 | 0.892 | 0.679 | 0.192 | 0.164 | 0.623 | 0.623 | 0.237 | 0.139 | 0.154
16 | NCI-H1793 | 0.939 | 0.85 | 1.03 | 0.211 | 0.205 | 0.271 | 0.256 | 0.143 | 0.157 | 0.136 | 0.785 | 0.639 | 0.469 | 0.204 | 0.165 | 0.695 | 0.352 | 0.17 | 0.117 | 0.18

Reference: the supplement of paper PMC10307832
